Laboratory results: patent publication US20190124918A1, “BIOFILM FORMATION INHIBITOR AND BIOFILM FORMATION INHIBITING COMPOSITION” (KAO CORPORATION, priority 2016, published 2019)

Key:
Type in all cases: cell-based
[1] = tested on: cooling water taken from a water cooling tower; test: Aqueous system model (annular reactor): amount of biofilm formed on test pieces (OD570); conditions: Test Example 4; 15 ppm in cooling water, 30° C.; solvent control finally beyond 0.7
Method: (§1) Biofilm formation inhibitory activity of p-toluquinone (Tokyo Kasei) was evaluated by an aqueous system model using an annular reactor (Art Science Co., Ltd.) having a 100 mL-volume culture tank. In the culture tank of the annular reactor, a cylindrical rotating body rotating at a speed of 160 rounds per minute was installed. To the rotating body, 12 test pieces were attached in advance. These test pieces were taken out at predetermined time intervals and biofilm formed on the test pieces was quantified. From a water cooling tower provided on a building rooftop and actually used, cooling water was taken and supplied to the annular reactor culture vessel (maintained at 30° C.) at a flow rate of 10 mL per minute; at the same time, an ethanol solution (15 g/L) of p-toluquinone was separately supplied to the annular reactor culture vessel by a syringe pump YSP-201 (manufactured by YMC) at a flow rate of 10 μL per minute (p-toluquinone concentration in cooling water in the culture tank was 15 ppm). The test pieces (n=2) taken out from the culture tank at predetermined time intervals were stained with 0.1% crystal violet, thoroughly washed twice with physiological saline and recovered in ethanol (15 mL). The absorbance (OD570) was measured to obtain the amount of the biofilm formed. […] Thereafter, the number of bacteria cells was measured. […]

[2] = tested on: cooling water taken from a water cooling tower; test: Aqueous system model (annular reactor): number of bacterial cells in water at inlet and outlet (R2A agar); conditions: Test Example 4; 15 ppm in cooling water; solvent control also about 10^4
Method: as §1

[3] = tested on: biofilm-forming microbe isolated from cooling water taken from a water cooling tower; test: Biofilm inhibition test, quinone-based compound and chelating agent (OD570)
Method: A biofilm-forming microbe (microbe showing a OD570 value of 0.3 or more in the test for determining the amount of biofilm (the following section 2-4)) isolated from cooling water taken from a water cooling tower was cultured in R2A culture medium at 30° C. for 16 hours while shaking. The turbidity (OD600) of the resultant culture solution was measured. The culture solution was diluted with R2A culture medium to prepare a suspension of 10^3 cfu/mL.
Predetermined amounts of p-toluquinone and HEDP were weighed and solvent (MDG) was added to prepare a composition. Since citric acid and EDTA were not dissolved in MDG, they were directly added in culture solutions; at the same time, p-toluquinone was directly added to the culture solutions.
The suspension of a test microbe prepared in the above section 2-1) was added in individual wells of a 96 well microplate in an amount of 150 μL, and then, the test solutions prepared in the above section 2-2) was each added and culture was initiated.
After the 96 well microplate was subjected to stationary culture performed at 30° C. for 48 hours, the culture solution was removed and the resultant microplate was washed with water. Subsequently, each well was stained with 0.1% crystal violet and 200 μL of ethanol was added. The absorbance (OD570) was measured to obtain the amount of biofilm (BF) formed.

Structure (SMILES): CC1=CC(=O)C=CC1=O [Compound a, p-Toluquinone]
- amount of the biofilm formed (OD570) [1]: ≤ 0.2
- number of bacterial cells at the inlet or outlet of the reactor [2]: about 10^4 cells/mL
- BF inhibitory effect of combined use of HEDP and p-toluquinone compared with p-toluquinone alone ([3]; Experiment No. 2 compared to Nos. 5 to 8): higher
- OD570 ([3]; Experiment No. 12: Toluquinone 5 ppm, Citric acid 0 ppm, 0 ppm/0 ppm gave 0.329): 0.236
- BF inhibitory effect of combined use of citric acid and p-toluquinone compared with p-toluquinone alone ([3]; Experiment No. 12 compared to Nos. 15 to 18): higher
- OD570 ([3]; Experiment No. 13: Toluquinone 10 ppm, Citric acid 0 ppm, 0 ppm/0 ppm gave 0.329): 0.048
- OD570 ([3]; Experiment No. 14: Toluquinone 20 ppm, Citric acid 0 ppm, 0 ppm/0 ppm gave 0.329): 0.051
- OD570 ([3]; Experiment No. 15: Toluquinone 5 ppm, Citric acid 0.5 ppm, 0 ppm/0 ppm gave 0.329): 0.057
- OD570 ([3]; Experiment No. 16: Toluquinone 5 ppm, Citric acid 2.5 ppm, 0 ppm/0 ppm gave 0.329): 0.054
- OD570 ([3]; Experiment No. 17: Toluquinone 5 ppm, Citric acid 5 ppm, 0 ppm/0 ppm gave 0.329): 0.054
- OD570 ([3]; Experiment No. 18: Toluquinone 5 ppm, Citric acid 10 ppm, 0 ppm/0 ppm gave 0.329): 0.053
- OD570 ([3]; Experiment No. 21: Tuluquinone 5 ppm, EDTA 0 ppm, 0 ppm/0 ppm gave 0.407): 0.358
- BF inhibitory effect of combined use of EDTA and p-toluquinone compared with p-toluquinone alone ([3]; Experiment No. 21 compared to Nos. 24 to 26): higher
- OD570 ([3]; Experiment No. 22: Tuluquinone 10 ppm, EDTA 0 ppm, 0 ppm/0 ppm gave 0.407): 0.048
- OD570 ([3]; Experiment No. 23: Tuluquinone 20 ppm, EDTA 0 ppm, 0 ppm/0 ppm gave 0.407): 0.051
- OD570 ([3]; Experiment No. 24: Tuluquinone 5 ppm, EDTA 2.5 ppm, 0 ppm/0 ppm gave 0.407): 0.151
- OD570 ([3]; Experiment No. 25: Tuluquinone 5 ppm, EDTA 5 ppm, 0 ppm/0 ppm gave 0.407): 0.077
- OD570 ([3]; Experiment No. 26: Tuluquinone 5 ppm, EDTA 10 ppm, 0 ppm/0 ppm gave 0.407): 0.078
